This assay has as its target T1, Sphingomyelinase C (Bacillus cereus, UniProt P11889).
T1 sequence (P11889 whole entry): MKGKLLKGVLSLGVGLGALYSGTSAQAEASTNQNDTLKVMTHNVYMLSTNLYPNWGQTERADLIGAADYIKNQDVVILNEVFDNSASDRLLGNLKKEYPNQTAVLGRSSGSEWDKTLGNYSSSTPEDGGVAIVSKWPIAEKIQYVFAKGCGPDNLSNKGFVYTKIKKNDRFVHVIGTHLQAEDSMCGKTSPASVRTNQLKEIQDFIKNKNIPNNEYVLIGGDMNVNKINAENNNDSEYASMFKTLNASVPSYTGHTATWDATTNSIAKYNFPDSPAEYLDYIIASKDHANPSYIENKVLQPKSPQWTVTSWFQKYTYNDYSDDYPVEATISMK
Put plainly: Turbidometric Assay. The conditions noted are these: pH 7.5; 37 °C. As for the experimental part: Briefly, Bc-SMase (50 ng/ml) was treated at 37 °C for 60 min with various compounds that were solubilized in dimethylacetoamide. The reaction mixture was incubated at 37 °C for 5 h with 1.0mM SM from bovine brain (Nacalai, Kyoto, Japan) that was solubilized in a solution containing 20mM Tris-HCl (pH 7.5), 1.0% sodium cholate, and 1mM MgCl2. The turbidity of the reaction mixture was analysed by absorption spectrometer at 620 nm.
In the case of `CCCCCCCCCCCCCCC[C@@H](O)[C@H](COCc1cccc(-c2ccccn2)n1)NC(=O)CCCCC` [SMY-584], the IC50 is more than 20 µM.

On to `CCCCCCCCCCCCCCCCOC[C@H](COCc1cccc(-c2ccccn2)n1)OCCCCCCCCCCCCCCCC` [TOM-2-37], for which the IC50 is more than 20 µM.

In turn, `CCCCCC(=O)N[C@@H](COCc1cccc(-c2ccccn2)n1)[C@H](O)c1ccccc1` [SMY-540] had an IC50 of 0.8 µM and a Ki of 1.3 µM.

With `CCCCCCOC[C@H](COCc1cccc(-c2ccccn2)n1)OCCCCCC` [TOM-2-18], the IC50 was more than 20 µM.

For `CCCCCCCCCCCCC/C=C/[C@@H](O)[C@H](COCc1cccc(-c2ccccn2)n1)NC(=O)CCCCC` [RY221B-a], the IC50 turned out to be 1.2 µM and the Ki is 5.2 µM.

As for `CCCCCCCCCCCCC/C=C/[C@@H](Oc1cccc(-c2ccccn2)n1)[C@H](CO)NC(=O)CCCCC` [RY221B-b], the IC50 is more than 20 µM.

`CCCCCCCCCCCCC/C=C/[C@@H](Oc1cccc(-c2ccccn2)n1)[C@H](COCc1cccc(-c2ccccn2)n1)NC(=O)CCCCC` [SMY-610] had an IC50 of 3.3 µM.

The compound `CCCCCC(=O)OC[C@H](COCc1cccc(-c2ccccn2)n1)OC(=O)CCCCC` [TOM-2-7] displayed an IC50 of more than 20 µM.

Consider `CCCCCC(=O)N[C@@H](COCc1cccc(-c2ccccn2)n1)[C@H](O)/C=C/COc1ccc(C(=O)c2ccccc2)cc1` [SMY-469a], for which the IC50 was more than 20 µM.

In the case of `CCCCCCCCCCCCC/C=C/[C@@H](O)[C@H](COCc1cccc(-c2ccccn2)n1)NC(=O)OC(C)(C)C` [SMY-579], the IC50 was 18.3 µM.

In the case of `CCCCCCCCCCCCC/C=C/[C@@H](O)[C@@H](N)COCc1cccc(-c2ccccn2)n1` [SMY-471], the IC50 is 0.9 µM and the affinity, expressed as Ki, was 2.8 µM.

`CCCCCCCCCCCCC/C=C/[C@@H](O)[C@H](COCc1cccc(-c2ccccn2)c1)NC(=O)CCCCC` [SMY-632]: the IC50 was more than 20 µM.

The values are drawn from BindingDB's records for doi:10.3109/14756366.2013.777717 (Tokushima Bunri University, 2014).
